Experimental data from patent publication US12628750B2, “Plant cell chromosome doubling by application of electromagnetic field” (SYNGENTA CROP PROTECTION AG, priority 2020, dated 2026).
“And” between values parts separate entries of the source, which are not always exact repeats. Equal entries are not always repeated.

Experiments:
BMS cell culture = assay: Nuclear ploidy analysis (Sysmex Ploidy Analyzer) of BMS cell suspension culture after treatment; format: cell-based
Protocol: A BMS cell culture was obtained and maintained in liquid MS media supplemented with 2 mg/L of 2,4-D as described in Green and Phillips (1975). Five to seven days after subculture, the liquid cell culture was placed in a […] gap electroporation cuvette and exposed to EMF application at a frequency of 275 kHz, intensity of 25 V/cm, for a duration of 18 hours with constant shaking at room temperature to disrupt spindle fiber formation and interfere with mitosis. For each treatment, three other tests were also setup from the same culture: (i) 1.25 mM colchicine-treatment, (ii) no treatment culture in an electroporation cuvette, and (iii) no treatment culture that remained in the incubator flask. This duration allows for DNA replication without cell division, thereby causing chromosome doubling.
To measure doubling immediately after treatment, cell culture was prepared for nuclear ploidy analysis first by protoplasting cells for 3 hours in plant protoplast digest/wash buffer (Sigma-Aldrich® D9692) containing 1% cellulase R-10 (GoldBio™ C8001.0001) and 0.1% macerozyme R-10 (GoldBio™ M8002.0001) at 25 C with shaking at 120 rpm. After protoplasting, cells were pelleted by centrifugation at 14000 rpm for 1 min in a tabletop microcentrifuge and protoplast buffer was removed with a pipette. The cells were then resuspended by pipetting in 400 μl of nuclei extraction buffer (Sysmex®, CyStain® UV Precise P Nuclei Extraction Buffer, 05-5002) and mixed with 800 μl of nuclei staining solution (Sysmex®, CyStain® UV Precise P Staining Buffer, 05-5002). The stained nuclei were then passed through a 30 μm filter (Sysmex®, Non-sterile CellTrics® Filter, Green, 04-0042-2316) into the collection cuvette, and the filter rinsed with an additional 800 μl of nuclei staining solution. The cuvette was then loaded into a Sysmex® Ploidy Analyzer (CyFlow® Ploidy Analyzer, equipped with UV LED 365 nm laser) and data obtained for the entirety of the sample. Untreated BMS cell culture typically has 2-3 ploidy peaks, consistent with the majority of cells existing in a stable ploidy state (peak 1), and a minority of cells being in the process of mitosis and containing double the standard ploidy state (peak 2). […] The increase in the proportion of cells represented in the higher level peaks (3 and 4) was associated with a decrease in cells in the lower level peaks (1 and 2), providing direct evidence that field treatment doubled the genomes of cells moving them from peaks 1 and 2 into the category of peaks 3 and 4 (Table 4). To determine whether this change in the relative proportions of cell culture ploidy levels was statistically significant, eight experimental replicates were averaged and the values compared with pairwise T-tests (Table 5 and Table 6).

[1] = tested on: transgenic tobacco (Nicotiana tabacum) BY-2 cell line; assay: Phragmoplast count by confocal microscopy in synchronized GFP-tubulin BY-2 cells; format: cell-based; details: 1.25 mM colchicine; n=3; * p≤0.05 vs No EMF
Text: (§1) The transgenic tobacco (Nicotiana tabacum) BY-2 cell line was obtained from RIKEN BioResource Research Center (epd.brd.riken.jp/en/). This cell line expresses green fluorescent protein (“GFP”) fused to tobacco α-tubulin. See F. Kumagai, et al., Fate of nascent microtubules organized at the M/G1 interface, as visualized by synchronized tobacco BY02 cells stably expressing GFP-tubulin: Time-sequence observations of the reorganization of cortical microtubules in living plant cells, PLANT & CELL PHYS. 42:723-732 (2001). When viewed with a fluorescence microscope, the microtubules fluoresce and enable visualization of microtubule polymerization, including, e.g., spindle fiber and phragmoplast formation during cell division. The BY-GT16 cells were grown in modified LS media supplemented with 0.2 mg/L of 2,4-D. The cells were maintained in the dark at 27° C. on a rotary shaker at 130 rpm, with sub-culturing at 7-day intervals.
To aid visualization and increase the likelihood of observing a plurality of cells undergoing mitosis after S-phase, the BY-GT16 cells were synchronized. […]
After washing the aphidicolin from the cells, the cells were permitted to restart normal cellular processes for six hours (i.e., the cells were “released”). […] The oscilloscope monitored the sinusoidal variation of the EMF applied to the cells in the cuvette as a function of time. […]

[2] = tested on: haploid, diploid and interspecific hybrid embryos and seedlings; details: cited from earlier work
[3] = tested on: transgenic tobacco (Nicotiana tabacum) BY-2 cell line; assay: Cell viability by trypan blue staining in synchronized BY-2 cells; format: cell-based
Text: as §1
To aid visualization and increase the likelihood of observing a plurality of cells undergoing mitosis after S-phase, the BY-GT16 cells were synchronized. To do so, […] of 7-day old suspension culture was transferred into 14 mL of BY-2 media (recipes below in Example 4). To the new suspension, 14 μL aphidicolin (5 mg/mL) was added, and the suspension was incubated in the dark for 24 hours at 25° C. on a rotary shaker at 130 rpm. After incubation, the aphidicolin was removed by washing ten times with 16 mL of sterile BY-2 medium. At the end of the last wash, the cells were resuspended in 16 mL of fresh BY-2 medium and returned the washed suspension to the incubator. BY-2 cells reach maximum mitotic index after approximately eight hours. Generally, peak numbers of cells with phragmoplasts were observed approximately eleven hours after washing. Thus, the plurality of cells was reasonably synchronized.
After washing the aphidicolin from the cells, the cells were permitted to restart normal cellular processes for six hours (i.e., the cells were “released”). Next, the population of synchronized cells were prepared for placement in an EMF apparatus (FIG. 1). At that point, 775 μL of cell culture was placed into a 4 mm electroporation cuvette, which was held in place in the cavity of the apparatus using a plastic frame. The plastic frame was designed to fit inside a cavity of the apparatus and was created by 3D-printing. The frame was designed to be placed inside the cavity such that the electrodes (210 and 220) from the Amplifier (200) are able to stably contact the rigid surfaces of the metal plates (Terminals 310 and 320) defining the Cavity (300), which in this instance was configured to hold the cuvette (FIG. 1). The Function Generator (100) was connected to the amplifier and was used to control the frequency (kHz) and field intensity (effective V/cm in the cuvette) of the applied EMF. An optional Oscilloscope (400) was also attached to the positive electrode (210) at the point of contact with the metal plate (310) of the Cavity (FIG. 2). The oscilloscope monitored the sinusoidal variation of the EMF applied to the cells in the cuvette as a function of time.
For the time period between Hours 7 and 11 after mitotic release of the cells, the EMF was applied to the cells in the cuvette (for a total duration of four hours). After application, the Function Generator (100) was turned off and the cells were removed for viability staining and phragmoplast observation. The remaining cells were fixed in paraformaldehyde for later observation.
To determine at what frequency or range of frequencies the BY-2 mitotic structures would be susceptible to the effects of the EMF, frequency tests were conducted in pairs with controls. The controls included a “No Treatment” control where no EMF was applied over the course of several sessions (see “Date of Experiment” column). Since EMF is generated via application of an AC voltage, in some tests, the controls included the application of a corresponding DC voltage. […]

[4] = 1.25 mM colchicine, 18 hours, single replicates
[5] = 1.25 mM colchicine, trypan blue

COc1cc2c(c(OC)c1OC)-c1ccc(OC)c(=O)cc1[C@@H](NC(C)=O)CC2 [Colchicine, colchicine]
Proportion of Cells in Each Ploidy Peak (%): Peak 1 (BMS cell culture; [4]): 38.88% and 11.65% and 11.29% and 27.74% and 26.54% and 19.87% and 35.15% and 33.87% | Proportion of Cells in Each Ploidy Peak (%): Peak 2 (BMS cell culture; [4]): 57.77% and 59.12% and 74.64% and 57.21% and 57.50% and 58.10% and 54.88% and 53.99% | Proportion of Cells in Each Ploidy Peak (%): Peak 3 (BMS cell culture; [4]): 3.35% and 26.77% and 13.43% and 13.56% and 15.34% and 20.30% and 8.73% and 11.35% | Proportion of Cells in Each Ploidy Peak (%): Peak 4 (BMS cell culture; [4]): 0.00% and 2.46% and 0.64% and 1.49% and 0.62% and 1.72% and 1.23% and 0.79% | Avg Peak1% (BMS cell culture; average of 8 replicates): 25.62% | Avg Peak2% (BMS cell culture; average of 8 replicates): 59.15% | Avg Peak3% (BMS cell culture; average of 8 replicates): 14.10% | Avg Peak4% (BMS cell culture; average of 8 replicates): 1.12% | Cells of higher genome content compared to untreated controls (flask or cuvette) (BMS cell culture; pairwise T-tests, 8 replicates): significantly more cells of higher genome content | Average Phragmoplasts (Normalized) [1]: 1.0* | survival rate after chromosome doubling with colchicine [2]: less than 100% | fertility after chromosome doubling with colchicine ([2]; usually): less than 50% | Loss of viability compared to EMF treated cells ([3]; 1.25 mM colchicine vs 250 and 275 kHz EMF): higher loss of viability | Average Viability (Normalized) ([3]; 1.25 mM colchicine, n=3): 101% | Viability (Normalized to Control) ([3]; 1.25 mM colchicine, normalized to no treatment control): 112.4% and 94.1% and 95.4% | Dead Cells (Per 3 vertical columns) [3, 5]: 87 and 112 and 120 | Live Cells (Per 3 vertical columns) [3, 5]: 732 and 740 and 766 | Viability (% Live) [3, 5]: 89.4% and 86.9% and 86.5%
